Reference: patent US20060088496A1, “Personal care compositions with salts of hydroxypropyl trialkylammonium substituted mono-saccharide” (Unilever Home & Personal Care USA, Division of Conopco, Inc., priority 2004, published 2006)

Tested on: Porcine epidermis
Assay: moisturization efficacy test: weight change of porcine skin with relative humidity on an environmental microbalance
Details: difference in percent weight change, treated minus untreated skin, 1% active material in water solution; for From 0 to 80 to 20% Relative Humidity: 90 minutes at 20% relative humidity after 80% (water retained); for From 0 through 80% Relative Humidity: 90 minutes at 80% relative humidity (water picked up)
Experimental: This Example provides the results of moisturization efficacy tests. These tests involved evaluation on Porcine epidermis utilized as a human skin model. Equipment and protocol are outlined below. An environmental microbalance (Model MB-300W, VTI Corp., 2708 W 84th Street, Hialeah, Fla. 33016) was programmed to measure the change in weight of porcine skin as a function of relative humidity at a constant temperature and air flow. The porcine skin was evaluated before and after treatment with aqueous solutions of humectants to determine adsorption and retention of moisture. Sample preparation was done as follows: • Epidermal sections of porcine skin were cut to approximately 4 cm×1 cm. • The skin was washed in a 10% detergent solution and dried in a dessicator to a constant weight. This represents the Untreated material. • The skin was soaked in a 1% by weight aqueous solution of the test sample for 15 minutes, excess fluid was blotted off and the skin was dried to constant weight in a dessicator. This represents the Treated material. Sequence of conditions for the microbalance was as follows: • 30 minutes at 0% relative humidity. (Insures that sample is dry.) • 90 minutes at 80% relative humidity. […] (Determines amount of water retained.) The experiments were conducted as follows: • The weight of a piece of untreated skin was recorded continuously during the sequence. • The piece of untreated skin was treated with the test sample. • The weight of the treated piece of skin was recorded continuously during the sequence. • Data reduction consisted of calculating the percent weight change from the initial weight for the untreated and treated pieces of skin. The reported data was the difference between each treated piece and its corresponding untreated piece.

Compound	From 0 to 80 to 20% Relative Humidity	From 0 through 80% Relative Humidity
OCC(O)CO [Glycerin]	0.10	0.21
C[N+](C)(C)CC(O)CCl.[Cl-] (stereo not shown) [Quat ® 188, 3-chloro-2-hydroxypropyl trimethylammonium chloride]	0.10	0.21
